Measurements published in patent publication US20040204474A1, “Carvedilol-lipophilic solutions” (priority 2000, published 2004).
Where two headings read alike, the source gives them in different places.

Columns and labels:
[1] = solubility of carvedilol in aqueous media; format: physicochemical; settings: about pH 1-2
[2] = gastrointestinal resorption after peroral administration; format: in vivo; settings: rapid release formulations, e.g. the commercial formulation
[3] = solubility of carvedilol in adjuvants and solvents with lipophilic character; format: physicochemical; settings: for solubility: oil or lipid

solubility in aqueous media, strongly acidic region [1]: very low solubility
resorption quota [2]: up to 80%
solubility in pronounced lipophilic solvents (paraffin, petroleum ether) [3]: very low
solubility in benzyl alcohol ([3]; at 37° C.): > 100 mg of carvedilol per ml
solubility ([3]; capric acid, 37 °C, at 37° C., read-out: solubility in capric acid): > 100 mg/mL
solubility ([3]; in many cases, read-out: solubility in glycerol oleyloleate, medium chain triglycerides and natural oils): < 10 mg/mL
solubility ([3]; all named solvents, read-out: solubility in glycerol oleyloleate, medium chain triglycerides and natural oils (cod liver, soya bean, sesame, peanut, olive, cottonseed oil)): < 50 mg/mL
solubility ([3]; oleic acid, 37 °C, at 37° C., read-out: solubility in oleic acid): > 100 mg/mL
SMILES: COc1ccccc1OCCNCC(O)COc1cccc2[nH]c3ccccc3c12 (centres unmarked) [carvedilol, 1-(4-carbazolyloxy)-3-[2-(2-methoxyphenoxy)ethyl-amino]-2-propanol]
